Reference: patent US20080175831A1 (priority 2006, published 2008)

How the values were obtained:
[1] = system: Kv1.1 mutant mice; assay: Neural damage in the hippocampus assessed with FluoroJade B staining after systemic treatment; type: in vivo, mouse; conditions: blood flow suppressor 7-nitroindazole 50 mg/kg IP; blood flow enhancer acetazolamide 30 mg/kg IP
Protocol: Ictal hyperemia and/or ischemia leads to neuronal damage. The contribution of ictal blood flow to neural damage (assessed with Fluorojade B staining) is determined by measuring the neural damage in the hippocampus, as a function of systemic treatment with a blood flow suppressor (e.g., 7-nitroindazole; 50 mg/kg IP) and a blood flow enhancer (e.g., acetazolamide; 30 mg/kg IP).
Ictal hyperemia and/or ischemia leads to neuronal damage. The contribution of ictal blood flow to neural damage is assessed with FluoroJade B staining to measure the neural damage in the hippocampus, as a function of systemic treatment with a blood flow suppressor (7-nitroindazole; 50 mg/kg IP) and enhancer (acetazolamide; 30 mg/kg IP).
Ten minutes before imaging blood flow, drugs will be administered by IP injection at a volume of 0.01 ml per g of body weight. […]
The staining solution is made with 0.01% stock solution of FluoroJade B (Histo-Chem. Inc., Jefferson Ark.) in distilled water (final dye concentration of 0.0004%). […] The tissue representing the hippocampus is then examined using epifluorescence microscopy with blue (450-490 nm) excitation light: the position of the imaging focus is localized by the red Di-I track from the cannula, and neuronal damage is assessed by FluoroJade B staining colored green. […]

[2] = system: Kv1.1 mutants; conditions: 30 mg/kg IP; cited from earlier work
[3] = system: seizures; conditions: in vivo; cited from earlier work
[4] = system: C3Heb/FeJ strain of Kv1.1 knockouts; assay: Status epilepticus induced with kainate, three-stage injection protocol; type: in vivo, mouse
Protocol: A three-stage injection protocol is employed to induce status epilepticus with kainate. Mice are given 10 mg/kg (in pH 7.4 saline) of kainate subcutaneously, after which they begin electroclinical seizure activity. An additional 5 mg/kg is administered 30 minutes after behavioral seizure initiation, followed by another 5 mg/kg dose sc after another 30 minutes. This protocol has previously provided a high survivability rate (greater than 90%) in the C3Heb/FeJ strain of Kv1.1 knockouts, and to moreover sustain the status for at least a 2-hour duration. Behavioral seizure scoring is conducted using a modified Racine scale, and cumulative seizure scores are generated for each animal (a seizure score is given every minute, with the highest numerical value based on the Racine scale; then the cumulative score is generated by adding all the individual scores for each minute of seizure activity).

[5] = kainate 10 mg/kg sc, then 5 mg/kg and 5 mg/kg at 30 minute intervals

| Structure (SMILES) | neural damage in the hippocampus (FluoroJade B staining) [1] | effect on blood flow [2] | effect on seizures [3] | duration of sustained status epilepticus [4, 5] | survivability rate [4, 5] | neural damage after kainate-induced status epilepticus (FIGS. 6A-6B) ([4]; mouse, FluoroJade B) |
| --- | --- | --- | --- | --- | --- | --- |
| O=[N+]([O-])c1cccc2cn[nH]c12 [7-nitroindazole] | less neural damage |  |  |  |  |  |
| CC(=O)Nc1nnc(S(N)(=O)=O)s1 [acetazolamide] | increased neural damage | increased blood flow | reduce seizures |  |  |  |
| C=C(C)[C@H]1CN[C@H](C(=O)O)[C@H]1CC(=O)O [kainate] |  |  |  | ≥ 2 h | greater than 90% | statistically significant effects of neural damage |
